“Also recorded” adds a separate entry of the source. Where two headings read alike, the source gives them in different places.
Assays:
[1] = system: endogenous T1R GPCR of HEK cells; assay: Intracellular calcium (Cal-520) in HEK cells stably expressing Nav1.1 with endogenous T1R GPCR; assay type: cell-based, human; details: 10 nM then 20 nM for Aβ1-40 and Aβ1-42
Protocol: Specifically, experiments were conducted as follows using HEK cells stably expressing Nav1.1 (FIG. 45). The calcium-sensitive reagent (Cal-520, AAT Bioquest) was incubated at 37° C. for 60 minutes, followed by incubation at room temperature for 30 minutes, and then changes in intracellular calcium were measured using a fluorescence microscope. […] Initially, 10 nM, followed by 20 nM of Aβ1-40 was applied after 5 minutes (arrow). […] A total of 6 cell groups from two independent experiments were measured, averaged by the maximum fluorescence response value, and the mean and standard error (stderr) were calculated and plotted. […] 10 nM, followed by 20 nM of Aβ1-42 was applied after 5 minutes (arrow). […] A total of 12 cell groups from two independent experiments were measured, averaged by the minimum fluorescence response value, and the mean and standard error (stderr) were calculated and plotted. Similar to the experimental results using the patch-clamp method when Aβ peptide was applied to Nav1.5, it was confirmed from intracellular calcium measurements that the effects of Aβ1-40 and Aβ1-42 were different.

[2] = system: T1R3 inherent in HEK cells; assay: Impedance of HEK Nav1.5 cell sheet; assay type: cell-based, human
Protocol: Specifically, cells were cultured on a conductive glass (FTO glass, thickness 2.2 mm) electrode plate to form a sheet, and the change in impedance value of the cell sheet was measured by applying current stimulation between the conductive glass covered with cells and the extracellular solution. The measurement experiment was conducted using the voltage-clamp method. A voltage pulse of 1 mV (1 Hz, 220 ms width) was applied between the silver chloride electrode placed in the extracellular solution and the electrode plate, and the change caused by the amyloid peptide was measured as a change in current (I).
By measuring the current response (I) occurring there, the resistance ® of the entire cell sheet to the applied voltage (1 mV) can be calculated from Ohm's law (V=IR>R=V/I). As shown in (FIG. 46), it was confirmed that the T1R3 antibody inhibits the effect of Aβ1-40 peptide.

Nav1.6 = assay: Patch-clamp recording of VGSC current in HEK (Nav1.6) cells; assay type: cell-based, human
Description: The cells used in the previous (18-1) experiment were cardiac-type VGSC cells. In this experiment, HEK (Nav1.1) and HEK (Nav1.6) cells, which are considered neuronal VGSC cells, were created. The effects of four peptides—Aβ25-35, Aβ1-38, Aβ1-40, and Aβ1-42—were examined using the same experimental protocol as in (18-1). […]

Nav1.5 = assay: Patch-clamp (voltage clamp) recording of VGSC current in HEK cells stably expressing Nav1.5; details: for Effect on VGSC current enhanced by Aβ42/40 (AD-D): applied after Aβ42/40 (AD-D)
HUEhT-1 cells = assay: Cell morphology observation, HUEhT-1 umbilical vein endothelial cells; assay type: cell-based, human; details: Aβ1-40 at 12.5 nM
Description: (§1) In a previous implementation example (FIG. 54), it was shown that Aβ peptides and artificial sweeteners cause depolymerization of the cytoskeleton. […] To easily compare and confirm the morphological changes before and after the application of Aβ1-40, the areas of interest were circled with dashed lines. Observations were made using bright-field microscopy. Images were captured with a camera (UI-3880CP-M) from IDS mounted on the microscope, and the images were imported to a PC using the software that came with the camera. Further image processing was done using ImageJ (Rasband, 1997-2018).

HEK cells = assay: Cell morphology observation (bright-field), HEK cells; assay type: cell-based, human
Description: as §1
The solution (HHBS*) was adjusted to achieve the final concentration values shown in Table 11 for Aβ42/40, and the changes in cell morphology were observed. Indicators included cell body contraction, extension, or the presence of lamellipodia ruffling around the cell periphery.

[3] = system: Nav1.5 in T1R3-silenced HEK cells; assay: VGSC current in HEK Nav1.5 cells with silenced T1R3; assay type: cell-based, human; details: for Effect on VGSC current: 20 μM (b565)
Summary of the method: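 VGSC currents were recorded in HEK-Nav1.5 cells with T1R3 knocked down by a miRNA expression vector, stimulated every 8 s. The effect of Aβ25-35 peptide was compared with control HEK-Nav1.5 cells.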

Nav1.1 = assay: Patch-clamp recording of VGSC current in HEK (Nav1.1) cells; assay type: cell-based, human
Description: The cells used in the previous (18-1) experiment were cardiac-type VGSC cells. In this experiment, HEK (Nav1.1) and HEK (Nav1.6) cells, which are considered neuronal VGSC cells, were created. The effects of four peptides—Aβ25-35, Aβ1-38, Aβ1-40, and Aβ1-42—were examined using the same experimental protocol as in (18-1).

VGSC of NG108-15 cells = assay: Whole-cell patch-clamp of VGSC current in differentiated NG108-15 cells; assay type: cell-based, mouse/rat; details: subsequent application
Description: Specifically, we used mouse/rat hybridoma cells NG108-15 differentiated into neuronal-like cells using forskolin and low-concentration FBS treatment, along with human-derived cells expressing human Nav1.5. We recorded VGSC currents using the whole-cell patch-clamp method and observed the effects of Aβ peptides (FIG. 58A-1, B). The term “Aβ peptides” here refers to a mixture of Aβ40 and Aβ42. We used two types of mixtures similar to those used in the experiments on cell morphology and lamellipodia dynamics. One mixture corresponds to the Aβ42/40 ratio observed in cerebrospinal fluid from healthy individuals (NDC: non-demented control), and the other corresponds to the ratio observed in cerebrospinal fluid from Alzheimer's disease patients with cognitive impairment (AD-D).

SH-SY5Y cells [4] = assay: Cell morphology observation, SH-SY5Y cells; assay type: cell-based, human; details: neuron-like differentiated SH-SY5Y cells
[5] = system: VGSC of SH-SY5Y cells (Nav1.7, Nav1.2, Nav1.3); assay: Patch-clamp recording of VGSC current in differentiated SH-SY5Y cells; assay type: cell-based, human; details: 5 μM
Description: Furthermore, the inventors focused on the relationship between taste receptors, particularly the sweet or umami receptors containing the T1R3 subunit, which are widely expressed in the brain and nervous system, including the hippocampus and cortex. They used human neuroblastoma cells (SH-SY5Y) that functionally express Nav1.2, Nav1.3, and Nav1.7 (as reported in non-patent literature 8), as well as HEK cells stably expressing Nav1.5 (with endogenous expression of T1R1, T1R2, and T1R3). They observed the effects of taste stimuli on sodium channel activation. By reducing the expression of T1R1 and T1R3 genes using silencing vectors, they confirmed that the effects on sodium channel currents induced by taste stimuli act through taste receptor GPCRs.
The SH-SY5Y cell culture medium was prepared by mixing DMEM (Sigma-Aldrich) and F-12 (Sigma-Aldrich) in equal proportions. To induce neuronal-like differentiation, the medium contained 1% FBS (BioWest), 5% 40 mM L-Glutamine (Fuji Film), and 1% MEM non-essential amino acids (Wako Pure Chemical Industries). During differentiation, SH-SY5Y cells were cultured for at least 5 days with the addition of 10 μM/ml retinoic acid (Fuji Film). In this document, “SH-SY5Y cells” refer to the SH-SY5Y cell line differentiated into neuronal-like cells.

VGSC = assay: Patch-clamp recording of VGSC current, cell type not specified or several cell types (summary statements); assay type: cell-based, human
SH-SY5Y cells [6] = assay: Action potentials of differentiated SH-SY5Y cells (current clamp, NanoCharge method); assay type: cell-based, human; details: pH6; current clamp
Protocol: Next, using the current-clamp mode, we applied current stimulation and recorded action potentials from differentiated SH-SY5Y cells (FIG. 5, from the lower to the upper part of the figure, rectangular wave current stimulation was applied. The current strengths were 6, 8, 10, and 12 pA from the bottom). Before the application of Aβ25-35 peptide, action potentials were not induced at stimulation currents of 6 pA and 8 pA, but action potentials were recorded at stronger stimulation currents (10 pA and 12 pA).
By using magnetic conductive nanoparticles as intracellular electrodes for measuring the neuronal action potentials of differentiated SH-SY5Y cells, and combining this with a capacitive potential detection device to measure changes in intracellular potentials, the spontaneous action potentials of these cells were measured. Specifically, 6.25 nM of the T1R3 agonist Aβ25-35 peptide was added to 400 μl of SH-SY5Y cell culture medium, and the spontaneous action potentials before and after the addition of Aβ25-35 peptide were measured to observe the changes.
This membrane potential recording method focuses on the magnetic conductive nanoparticles penetrating the cell membrane, the cover glass on which the cells are seeded, and the electrode placed below the cover glass forming a capacitor. The charge (Q) charged to this capacitor is recorded as the membrane potential in terms of charge rather than voltage changes. Since the charge (Q) is obtained from Q=CV, where C is the capacitance and V is the potential, the charge changes measured here are influenced by the capacitor (C) (FIG. 43).

[7] = when used for treatment of hypercalcemia; cited from earlier work
[8] = system: voltage-dependent potassium channel current of SH-SY5Y cells; assay: Voltage clamp recording of outward potassium current in SH-SY5Y cells; assay type: cell-based, human; details: 5 μM
Description: The inward current represents the transient peak observed immediately after stimulation, while the outward current measures the average value during the last 50 ms of rectangular pulse stimulation.

HEK Nav1.5 cells = assay: GFP-Tubulin / GFP-Actin cytoskeleton observation in HEK Nav1.5 cells; assay type: cell-based, human
Description: To observe the impact of cinacalcet and Aβ1-42 peptide on microfilament (actin) fiber structures, we labeled cells with GFP-Actin (FIG. 34). […] This experimental approach, using GFP-Tubulin, GFP-Actin, or other fluorescent proteins to label microtubules and microfilaments, can be used to screen compounds that regulate the activity of ion channels and neuronal function-controlling proteins. Additionally, simultaneous labeling of tubulin and actin can be achieved using fluorescent antibodies or phalloidin after cell fixation.

Aβ1-40: amyloid β peptide, Sequence No. 3
Change in intracellular calcium [1]: increased intracellular calcium levels; also recorded: continued to slowly increase | Change of impedance of cell sheet [2]: decrease in impedance | Effect on VGSC current (Nav1.6): VGSC enhancement | Effect on VGSC current amplitude (Nav1.5): reduced VGSC currents for both prepulse potentials | Shift of steady-state inactivation (S-S) curve of VGSC (Nav1.5): to the left; also recorded: more towards the hyperpolarizing direction | Change in cell morphology (HUEhT-1 cells): a decrease in cell area/volume | Change in cell morphology (HUEhT-1 cells; listed as Aβ40): significant cell body contraction (atrophy) | Change in cell morphology (HEK cells; Aβ1-40 at 12.5 nM): a decrease in cell area/volume | Effect on VGSC in T1R3-silenced cells [3]: is lost | Effect on VGSC current (Nav1.1): VGSC enhancement

NCCC(=O)O [β-alanine]
Effect on VGSC current after Aβ42/40 (AD-D) (VGSC of NG108-15 cells): did not cause any further changes | Effect on VGSC current enhanced by Aβ42/40 (AD-D) (Nav1.5): reversed; also recorded: reverse the enhancement of VGSC current; also recorded: nearly returned to the control level | Effect on VGSC current enhanced by Aβ42/40 (AD-D) (Nav1.5; listed as D-alanine): nearly restoring it to control levels | Effect on cell motility (HEK cells; 5 μM): promotes cell motility | Effect on cells contracted and inactive due to Aβ AD (HEK cells; HEK cells, data not shown): induces activity in cells | Lamellipodia activity (SH-SY5Y cells [4]): enhances lamellipodia activity

C[C@@H](NCCCc1cccc(C(F)(F)F)c1)c1cccc2ccccc12 [Cinacalcet]
Effect on inward VGSC current [5]: inhibited | Effect on inward VGSC current ([5]; listed as cinacalcet): complete inhibition of both currents | Effects on VGSCs (VGSC): Inhibition of VGSCs | Effect on VGSC activity (VGSC; 5 μM): completely inhibits VGSC activity | Inhibitory effect on VGSC when tubulin polymerization is inhibited by Colchicine (VGSC; Colchicine treated cells): still inhibited VGSC currents | Inhibitory effect on VGSC when actin polymerization is inhibited by Cytochalasin D (VGSC; Cytochalasin D treated cells): inhibited by cytochalasin D treatment | Required concentration for VGSC inhibition (VGSC; HEK Nav1.5 and SH-SY5Y): 5 µM | Effects on VGSCs (VGSC; listed as cinacalcet): inhibited human VGSC | Effect on VGSC (Na+) current under acidic conditions (Nav1.5; 5 μM, pH 6): gradually inhibited; also recorded: exhibited VGSC inhibition | Effect on VGSC currents (Nav1.5; 20 μM, control HEK Nav1.5 cells): completely inhibits VGSC currents | Effect on leak (baseline) current (Nav1.5; when VGSC inhibition nearly complete): reduced leak currents | Effect on VGSC-dependent action potentials under acidic conditions (SH-SY5Y cells [6]): inhibited VGSC-dependent action potentials | Plasma concentration [7]: 50 nM | Effect on outward potassium current [8]: inhibited | Effect on outward potassium current ([8]; listed as cinacalcet): complete inhibition of both currents | Microfilament structure (GFP-Actin) (HEK Nav1.5 cells): condensed GFP-Actin structures | Effect on VGSC current [3]: no change in VGSC current was observed | Effect on VGSC current ([3]; listed as cinacalcet): no observable effect | Effect on VGSC in T1R3-silenced cells ([3]; listed as cinacalcet): no VGSC inhibitory effect was observed; also recorded: T1R3 silencing nullifies ab25-35's

From patent publication US20260240820A1, “METHOD FOR CONTROLLING MEMBRANE POTENTIAL-DEPENDENT ION CHANNEL THROUGH TYPE I TASTE RECEPTORS (T1RS)” (ION CHAT RESEARCH CORPORATE, priority 2022, published 2026)
